# Experimental data from patent US8580829B2 (Boehringer Ingelheim International GmbH, priority 2010, dated 2013).
# Where two headings read alike, the source gives them in different places.
# Tests used:
# [1] = molecular target: T1, recombinant human FLAP protein (Homo sapiens, UniProt P20292); test: FLAP binding assay (Scintillation Proximity Assay, displacement of [125I]L-691,831); settings: recombinant human FLAP membranes, [125I]L-691,831 probe; read-out: FLAP SPA IC50
# T1 construct: made in house; host or cells: Sf9 insect cells (100,000 x g membrane fraction)
# T1 sequence (P20292 1-161): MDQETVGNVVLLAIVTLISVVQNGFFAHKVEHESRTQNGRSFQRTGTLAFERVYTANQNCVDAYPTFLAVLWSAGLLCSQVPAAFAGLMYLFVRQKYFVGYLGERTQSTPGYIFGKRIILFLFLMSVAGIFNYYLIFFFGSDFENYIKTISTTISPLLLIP
# Method in brief: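 Membranes came from Sf9 insect cells expressing recombinant human FLAP, collected as the 100,000×g pellet in Tris pH 7.5/MgCl2/EDTA buffer. 5 μg membrane protein was coupled to WGA SPA beads for 1 h.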
# [2] = system: synthesis of LTB4 in human whole blood; test: human whole blood LTB4 production inhibition assay; assay type: cell-based; settings: Homo sapiens
# Method in brief: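 Steps: compound plus heparinized human whole blood, 15 min at 37° C; add calcimycin to 20 μM final; incubate another 30 min at 37° C; centrifuge at low speed and collect plasma; measure LTB4 with a homogeneous time-resolved fluorescence immunoassay.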
# [3] = heparinized human whole blood, calcimycin 20 μM, read-out: hWB LTB4 IC50
Structure (SMILES),IC50 [1] [nM],"IC50 [2, 3] [nM]",IC50 ([2]; read-out: hWB LTB4 IC50 (nM)) [nM]
"CN1CCC(N(C)c2nc(C3(c4ccc(-c5cnc(N)nc5)cc4)CCC3)no2)CC1 [Example 293, 5-[4-(1-{5-[Methyl-(1-methyl-piperidin-4-yl)-amino]-[1,2,4]oxadiazol-3-yl}-cyclobutyl)-phenyl]-pyrimidin-2-ylamine]",150,,750
"Cc1cc(-c2nc(C3(c4ccc(-c5cnc(N)nc5)cc4)CCC3)no2)ccc1O [Example 99, 4-(3-{1-[4-(2-Amino-pyrimidin-5-yl)-phenyl]-cyclobutyl}-1,2,4-oxadiazol-5-yl)-2-methyl-phenol]",2,150,
"Nc1ncc(-c2ccc(C3(c4noc(-c5cccc(Cl)c5)n4)CCC3)cc2)cn1 [Example 45, 5-(4-{1-[5-(3-Chloro-phenyl)-1,2,4-oxadiazol-3-yl]-cyclobutyl}-phenyl)-pyrimidin-2-ylamine]",7.9,950,
"CN(C)C(=O)c1nc(C2(c3ccc(-c4cnc(N)nc4)cc3)CCC2)no1 [Example 14, 3-{1-[4-(2-Amino-pyrimidin-5-yl)-phenyl]-cyclobutyl}-1,2,4-oxadiazole-5-carboxylic acid dimethylamide]",57,> 5000,
"Nc1ncc(-c2ccc(C3(c4noc(-c5ccnc(NCCO)c5)n4)CCC3)cc2)cn1 [Example 95, 2-[4-(3-{1-[4-(2-Amino-pyrimidin-5-yl)-phenyl]-cyclobutyl}-1,2,4-oxadiazol-5-yl)-pyridin-2-ylamino]-ethanol]",3.2,130,
"CCNC(=O)c1nc(C2(c3ccc(-c4cnc(N)nc4)cc3)CCC2)no1 [Example 13, 3-{1-[4-(2-Amino-pyrimidin-5-yl)-phenyl]-cyclobutyl}-1,2,4-oxadiazole-5-carboxylic acid ethylamide]",170,> 5000,
"CS(=O)(=O)N1CCN(c2ccc(-c3nc(C4(c5ccc(-c6cnc(N)nc6)cc5)CCC4)no3)cn2)CC1 [Example 109, 5-[4-(1-{5-[6-(4-Methanesulfonyl-piperazin-1-yl)-pyridin-3-yl]-1,2,4-oxadiazol-3-yl}-cyclobutyl)-phenyl]-pyrimidin-2-ylamine]",1.3,98,
"Cn1cc(-c2nc(C3(c4ccc(-c5cnc(N)nc5)cc4)CC(C)(C)C3)no2)cn1 [Example 123, 5-(4-{3,3-Dimethyl-1-[5-(1-methyl-1H-pyrazol-4-yl)-1,2,4-oxadiazol-3-yl]-cyclobutyl}-phenyl)-pyrimidin-2-ylamine]",35,1500,
Cn1cnc(-c2nc(C3(c4ccc(-c5cnc(N)nc5)cc4)CCC3)no2)c1 [Example 23],4.2,73,
"Nc1ncc(-c2ccc(C3(c4noc(-c5ccc(Cl)c(Cl)c5)n4)CCC3)cc2)cn1 [Example 55, 5-(4-{1-[5-(3,4-Dichloro-phenyl)-1,2,4-oxadiazol-3-yl]-cyclobutyl}-phenyl)-pyrimidin-2-ylamine]",13,1100,
"COCCn1cnc(-c2nc(C3(c4ccc(-c5cnc(N)nc5)cc4)CCC3)no2)c1 [Example 88, 5-[4-(1-{5-[1-(2-Methoxy-ethyl)-1H-imidazol-4-yl]-1,2,4-oxadiazol-3-yl}-cyclobutyl)-phenyl]-pyrimidin-2-ylamine]",6.3,160,

# Continued, in another order:
IC50 [1] [nM],"IC50 [2, 3] [nM]",Structure (SMILES),IC50 ([2]; read-out: hWB LTB4 IC50 (nM)) [nM]
1.9,130,"CS(=O)(=O)C1CCN(c2cnc(-c3nc(C4(c5ccc(-c6cnc(N)nc6)cc5)CCC4)no3)cn2)C1 (stereo not shown) [Example 203, 5-[4-(1-{5-[5-(3-Methanesulfonyl-pyrrolidin-1-yl)-pyrazin-2-yl]-1,2,4-oxadiazol-3-yl}-cyclobutyl)-phenyl]-pyrimidin-2-ylamine]",
1.7,> 5000,"Cc1ccc(-c2nc(C3(c4ccc(-c5cnc(N)nc5)cc4)CCC3)no2)c(=O)[nH]1 [Example 192, 3-(3-{1-[4-(2-Amino-pyrimidin-5-yl)-phenyl]-cyclobutyl}-1,2,4-oxadiazol-5-yl)-6-methyl-1H-pyridin-2-one]",
8.1,310,"Nc1ncc(-c2ccc(C3(c4noc(-c5cocn5)n4)CCC3)cc2)cn1 [Example 189, 5-{4-[1-(5-Oxazol-4-yl-1,2,4-oxadiazol-3-yl)-cyclobutyl]-phenyl}-pyrimidin-2-ylamine]",
5.3,44,"CN(C)CCN(C)c1cnc(-c2nc(C3(c4ccc(-c5cnc(N)nc5)cc4)CCC3)no2)cn1 [Example 271, N-[5-(3-{1-[4-(2-Amino-pyrimidin-5-yl)-phenyl]-cyclobutyl}-[1,2,4]oxadiazol-5-yl)-pyrazin-2-yl]-N,N′,N′-trimethyl-ethane-1,2-diamine]",
2.1,130,"Nc1ncc(-c2ccc(C3(c4noc(-c5cccnc5Cl)n4)CCC3)cc2)cn1 [Example 169, 5-(4-{1-[5-(2-Chloro-pyridin-3-yl)-1,2,4-oxadiazol-3-yl]-cyclobutyl}-phenyl)-pyrimidin-2-ylamine]",
60,1400,"Nc1ncc(-c2ccc(C3(c4noc(C5CCCCN5)n4)CCC3)cc2)cn1 (stereo not shown) [Example 283, 5-{4-[1-(5-Piperidin-2-yl-[1,2,4]oxadiazol-3-yl)-cyclobutyl]-phenyl}-pyrimidin-2-ylamine]",
78,1700,"CC(C)(O)Cc1nc(C2(c3ccc(-c4cnc(N)nc4)cc3)CCC2)no1 [Example 278, 1-(3-{1-[4-(2-Amino-pyrimidin-5-yl)-phenyl]-cyclobutyl}-[1,2,4]oxadiazol-5-yl)-2-methyl-propan-2-ol]",
1.9,47,"Cc1cc(-c2ccc(C3(c4noc(-c5cnn(C)c5)n4)CCC3)cc2)cnc1N [Example 221, 3-Methyl-5-(4-{1-[5-(1-methyl-1H-pyrazol-4-yl)-[1,2,4]oxadiazol-3-yl]-cyclobutyl}-phenyl)-pyridin-2-ylamine]",
1.2,45,"Nc1ncc(-c2ccc(C3(c4noc(-c5cnn(C6CCS(=O)(=O)C6)c5)n4)CCC3)cc2)cn1 (stereo not shown) [Example 226, 5-[4-(1-{5-[1-(1,1-Dioxo-tetrahydro-1lambda6-thiophen-3-yl)-1H-pyrazol-4-yl]-[1,2,4]oxadiazol-3-yl}-cyclobutyl)-phenyl]-pyrimidin-2-ylamine]",
3.5,210,"Cc1ccc(-c2nc(C3(c4ccc(-c5cnc(N)nc5)cc4)CCC3)no2)cn1 [Example 152, 5-(4-{1-[5-(6-Methyl-pyridin-3-yl)-1,2,4-oxadiazol-3-yl]-cyclobutyl}-phenyl)-pyrimidin-2-ylamine]",
1.5,75,"CCNC(=O)Cn1cc(-c2nc(C3(c4ccc(-c5cnc(N)nc5)cc4)CCC3)no2)cn1 [Example 130, 2-[4-(3-{1-[4-(2-Amino-pyrimidin-5-yl)-phenyl]-cyclobutyl}-1,2,4-oxadiazol-5-yl)-pyrazol-1-yl]-N-ethyl-acetamide]",
0.9,43,"CN(C(=O)Cn1cc(-c2nc(C3(c4ccc(-c5cnc(N)nc5)cc4)CCC3)no2)cn1)C1CC1 [Example 141, 2-[4-(3-{1-[4-(2-Amino-pyrimidin-5-yl)-phenyl]-cyclobutyl]-1,2,4-oxadiazol-5-yl)-pyrazol-1-yl]-N-cyclopropyl-N-methyl-acetamide]",
